# According to EP4603105A1, “PHARMACEUTICAL COMPOSITION CONTAINING CYCLIC COMPOUND HAVING SELECTIVE KRAS INHIBITORY EFFECT AGAINST HRAS AND NRAS” (CHUGAI SEIYAKU KABUSHIKI KAISHA, priority 2022, dated 2024):
# Where a SMILES comes first, the peptide text is derived from it. Bridges are numbered along the chain shown (N, C = ends). [ ]: non-standard residue; d: D form. The star is where a group is joined. hPhe(3-Cl-4-CF3) = N[C@@H](CCc1ccc(C(F)(F)F)c(Cl)c1)C(=O)O; NPrPhe(4-CF3) = CCCN[C@@H](Cc1ccc(C(F)(F)F)cc1)C(=O)O; NMeGly(cPent) = CN[C@H](C(=O)O)C1CCCC1; Pro(4,4-F2) = O=C(O)[C@@H]1CC(F)(F)CN1; NMeL = CN[C@@H](CC(C)C)C(=O)O; Morpholide = C1CN(*)CCO1; Aze = O=C(O)[C@@H]1CCN1; Ac4c = NC1(C(=O)O)CCC1; Sar = CNCC(=O)O
# What was measured:
# [1] = target: GDP-bound KRAS wild-type protein (Homo sapiens, UniProt P01116); test: Binding to KRAS by surface plasmon resonance (SPR), dissociation constant KD
# Sequence of GDP-bound KRAS wild-type protein (P01116 1-188 isoform P01116-2): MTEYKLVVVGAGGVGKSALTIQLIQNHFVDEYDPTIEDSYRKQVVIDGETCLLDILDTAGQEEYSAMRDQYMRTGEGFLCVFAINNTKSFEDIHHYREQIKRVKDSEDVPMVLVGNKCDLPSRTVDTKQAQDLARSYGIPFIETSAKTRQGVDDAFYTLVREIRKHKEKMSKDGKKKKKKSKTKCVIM
# Procedure, shortened: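 Compound binding is evaluated by SPR single-cycle kinetics, with concentrations added intermittently from low to high for 75 s each. Target surfaces carry GDP-loaded biotinylated Avi-RAS at about 100–300 RU, regenerated after each cycle; temperature 30°C. A 1:1 binding model gives KD.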
# [2] = target: GDP-bound NRAS wild-type protein (Homo sapiens, UniProt P01111); test: Binding to NRAS by surface plasmon resonance (SPR), KD and KD ratio to KRAS
# Sequence of GDP-bound NRAS wild-type protein (P01111 whole entry): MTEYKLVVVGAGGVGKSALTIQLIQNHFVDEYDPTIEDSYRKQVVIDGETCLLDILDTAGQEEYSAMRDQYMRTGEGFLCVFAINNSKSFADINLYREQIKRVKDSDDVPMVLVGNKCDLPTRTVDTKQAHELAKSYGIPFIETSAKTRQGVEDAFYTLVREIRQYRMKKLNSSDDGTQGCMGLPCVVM
# Procedure, shortened: (§1)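 Biotinylated GDP-bound RAS was captured at about 100–300 RU. Running buffer: HBS pH 7.4, 10 mM MgCl2, 10 µM GDP, 1 mM DTT, 0.01% Tween 20, 4% DMSO.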
# HRAS wild-type protein = HRAS wild-type protein (Homo sapiens, UniProt P01112); test: Binding to HRAS by surface plasmon resonance (SPR), KD and KD ratio to KRAS
# Sequence of HRAS wild-type protein (P01112 whole entry): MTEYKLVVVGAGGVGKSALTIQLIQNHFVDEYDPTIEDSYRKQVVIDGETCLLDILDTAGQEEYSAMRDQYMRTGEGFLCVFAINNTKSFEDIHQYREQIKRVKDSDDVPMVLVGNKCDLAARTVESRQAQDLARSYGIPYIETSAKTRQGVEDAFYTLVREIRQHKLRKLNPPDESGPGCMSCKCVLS
# Procedure, shortened: as §1
# [3] = test system: human lung cancer strain NCI-H441; type: cell-based
# Procedure, shortened: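 Step one: dispense the test compound in serial DMSO dilutions. Step three: add the reagent and measure […].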
# [4] = ratio of KD for GDP-bound NRAS wild-type protein to KD for KRAS
# [5] = ratio of KD for HRAS wild-type protein to KD for KRAS
# [6] = Single Cycle Kinetics, 1:1 binding model
# [7] = ratio of the KD value with respect to GDP-bound NRAS wild-type protein to the KD value with respect to KRAS
# [8] = ratio of the KD value with respect to HRAS wild-type protein to the KD value with respect to KRAS
# [9] = ratio of KD value for GDP-bound NRAS wild-type protein to KD value for KRAS (SPR)
# [10] = ratio of KD value for HRAS wild-type protein to KD value for KRAS (SPR)
SMILES,Kd ([1]; 1:1 binding model) [µM],"NRAS /KRAS [2, 4]",HRAS /KRAS (HRAS wild-type protein; [5]),IC50 [3] [µM],"Kd [1, 6] [µM]","NRAS /KRAS [2, 7]",HRAS /KRAS (HRAS wild-type protein; [8]),Kd ([1]; Single Cycle Kinetics) [µM],"NRAS /KRAS [2, 9]",HRAS /KRAS (HRAS wild-type protein; [10])
"CCCN1C(=O)CN(C)C(=O)[C@@H]2CCN2C(=O)[C@H]([C@@H](C)CC)NC(=O)[C@H](CC(C)C)N(C)C(=O)C[C@@H](C(=O)N2CCOCC2)NC(=O)[C@H](C2CCCC2)N(C)C(=O)C2(CCC2)NC(=O)[C@@H]2CC(F)(F)CN2C(=O)[C@H](CCc2ccc(C(F)(F)F)c(Cl)c2)NC(=O)CN(C)C(=O)[C@@H]1Cc1ccc(C(F)(F)F)cc1 [PP0340] ([NMeL]I[Aze][Sar][NPrPhe(4-CF3)][Sar][hPhe(3-Cl-4-CF3)][Pro(4,4-F2)][Ac4c][NMeGly(cPent)]D-Morpholide; lactam N-11)",0.0037,B (a compound having 3 or more and less than 10 is denoted as B),B (a compound having 3 or more and less than 10 is denoted as B),0.177,–,–,–,–,–,–
CC[C@H](C)[C@@H]1NC(=O)[C@H](CC(C)C)N(C)C(=O)C[C@@H](C(=O)N(C)C)N(C)C(=O)[C@H](C2CCCC2)N(C)C(=O)C2(CCCC2)NC(=O)[C@@H]2C[C@@H](C)CN2C(=O)[C@H](CCc2cc(F)c(C(F)(F)F)c(F)c2)NC(=O)CN(C)C(=O)[C@H](Cc2ccc(C)cc2)N2CC/C=C\C[C@@H](C2=O)N(C)C(=O)CN(C)C1=O [PP2189],–,–,–,0.0105,0.00017,A (a compound having 10 or more and less than 20 is denoted as A),A (a compound having 10 or more and less than 20 is denoted as A),–,–,–
CCO[C@@H]1C[C@H]2C(=O)NC3(CCC3)C(=O)N(C)[C@@H](C3CCCC3)C(=O)N(CC)[C@H](C(=O)N3CCOCC3)CC(=O)N(C)[C@@H](CC(C)C)C(=O)N[C@@H]([C@@H](C)CC)C(=O)N(C)CC(=O)N(C)[C@H]3CCCCCN(C3=O)[C@@H](Cc3ccc(C(F)(F)F)cc3)C(=O)N(C)CC(=O)N[C@@H](CCc3cc(F)c(C(F)(F)F)c(F)c3)C(=O)N2C1 [PP0638],–,–,–,0.341,0.0034,B (a compound having 3 or more and less than 10 is denoted as B),B (a compound having 3 or more and less than 10 is denoted as B),–,–,–
CCO[C@@H]1C[C@H]2C(=O)NC3(CCC3)C(=O)N(C)[C@@H](C3CCCC3)C(=O)N(C)[C@H](C(=O)N(C)C)CC(=O)N(C)[C@@H](CC(C)C)C(=O)N[C@@H]([C@@H](C)CC)C(=O)N(C)CC(=O)N(C)[C@H]3CCCCCN(C3=O)[C@@H](Cc3ccc(F)cc3)C(=O)N(C)CC(=O)N[C@@H](CCc3ccc(C(F)(F)F)c(Cl)c3)C(=O)N2C1 [PP0972],–,B (a compound having 3 or more and less than 10 is denoted as B),B (a compound having 3 or more and less than 10 is denoted as B),0.0158,–,–,–,0.00015,–,–
CC[C@H](C)[C@@H]1NC(=O)[C@H](CC(C)C)N(C)C(=O)C[C@@H](C(=O)N2CCOCC2)N(C)C(=O)[C@H](C2CCCC2)N(C)C(=O)C2(CCCC2)NC(=O)[C@@H]2CCCN2C(=O)[C@H](CCc2ccc(C(F)(F)F)c(Cl)c2)NC(=O)CN(C)C(=O)[C@H](Cc2ccc(F)cc2)N2C/C=C\CC[C@@H](C2=O)N(C)C(=O)CN(C)C1=O [PP0607],–,–,–,0.119,0.00097,C (A compound having a KD ratio of 0.1 or more and less than 3 is denoted as C),B (a compound having 3 or more and less than 10 is denoted as B),–,–,–
CCO[C@@H]1C[C@H]2C(=O)NC3(CC(C)(C)C3)C(=O)N(C)[C@@H](C3CCCC3)C(=O)N(C)[C@H](C(=O)N(C)CC)CC(=O)N(C)[C@@H](CC(C)C)C(=O)N[C@@H]([C@@H](C)CC)C(=O)N(C)CC(=O)N(C)[C@H]3C/C=C\CCN(C3=O)[C@@H](Cc3ccc(C(F)F)cc3)C(=O)N(C)CC(=O)N[C@@H](CCc3ccc(C4CC4)c(OC)c3)C(=O)N2C1 [PP3153],0.0014,A (a compound having 10 or more and less than 20 is denoted as A),A (a compound having 10 or more and less than 20 is denoted as A),0.0287,–,–,–,–,–,–
CCO[C@@H]1C[C@H]2C(=O)NC3(CC(C)(C)C3)C(=O)N(C)[C@@H](C3CCCC3)C(=O)N(C)[C@H](C(=O)N(C)CC)CC(=O)N(C)[C@@H](CC(C)C)C(=O)N[C@@H]([C@@H](C)CC)C(=O)N(C)CC(=O)N(C)[C@H]3C/C=C\CCN(C3=O)[C@@H](Cc3ccc(C(F)F)cc3)C(=O)N(C)CC(=O)N[C@@H](CCc3ccc(CC)c(F)c3)C(=O)N2C1 [PP3157],0.0021,A (a compound having 10 or more and less than 20 is denoted as A),A (a compound having 10 or more and less than 20 is denoted as A),0.0885,–,–,–,–,–,–
CCO[C@@H]1C[C@H]2C(=O)NC3(CCC3)C(=O)N(C)[C@@H](C3CCCC3)C(=O)N(C)[C@H](C(=O)N3CCOCC3)CC(=O)N(C)[C@@H](CC(C)C)C(=O)N[C@@H]([C@@H](C)CC)C(=O)N(C)CC(=O)N(C)[C@H]3CCCCCN(C3=O)[C@@H](Cc3ccc(F)cc3)C(=O)N(C)CC(=O)N[C@@H](CCc3ccc(C(F)(F)F)c(Cl)c3)C(=O)N2C1 [PP0968],–,B (a compound having 3 or more and less than 10 is denoted as B),B (a compound having 3 or more and less than 10 is denoted as B),0.0388,–,–,–,0.00032,–,–
CC[C@H](C)[C@@H]1NC(=O)[C@H](CC(C)C)N(C)C(=O)C[C@@H](C(=O)N2CCOCC2)N(C)C(=O)[C@H](C2CCCC2)N(C)C(=O)C2(CCC2)NC(=O)[C@]2(C)CCCN2C(=O)[C@H](CCc2cc(F)c(C(F)(F)F)c(F)c2)NC(=O)CN(C)C(=O)[C@H](Cc2ccc(C(F)(F)F)cc2)N2CCCCC[C@@H](C2=O)N(C)C(=O)CN(C)C1=O [PP0817],–,A (a compound having 10 or more and less than 20 is denoted as A),B (a compound having 3 or more and less than 10 is denoted as B),0.112,–,–,–,0.00036,–,–
CC[C@H](C)[C@@H]1NC(=O)[C@H](CC2CCCC2)N(C)C(=O)C[C@@H](C(=O)N(C)C)N(C)C(=O)[C@H](C2CCCC2)N(C)C(=O)C2(CCC2)NC(=O)[C@@H]2C[C@@H](C(F)(F)F)CN2C(=O)[C@H](CCc2cc(F)c(C(F)(F)F)c(F)c2)NC(=O)CN(C)C(=O)[C@H](Cc2ccc(F)cc2)N2CC/C=C\C[C@@H](C2=O)N(C)C(=O)CN(C)C1=O [PP1508],–,–,–,0.0281,0.00015,–,–,–,A (a compound having 10 or more and less than 20 is denoted as A),A (a compound having 10 or more and less than 20 is denoted as A)
CCO[C@@H]1C[C@H]2C(=O)NC3(CCC3)C(=O)N(C)[C@@H](C3CCCC3)C(=O)N(CCC3CCCC3)[C@H](C(=O)N3CCOCC3)CC(=O)N(C)[C@@H](CC(C)C)C(=O)N[C@@H]([C@@H](C)CC)C(=O)N(C)CC(=O)N(C)[C@H]3CCCCCN(C3=O)[C@@H](Cc3ccc(C(F)(F)F)cc3)C(=O)N(C)CC(=O)N[C@@H](CCc3cc(F)c(C(F)(F)F)c(F)c3)C(=O)N2C1 [PP0641],–,–,–,> 1.3,0.026,A (a compound having 10 or more and less than 20 is denoted as A),A (a compound having 10 or more and less than 20 is denoted as A),–,–,–
CCCN1C(=O)[C@H](C2CCCC2)N(C)C(=O)C2(CCC2)NC(=O)[C@@H]2C[C@@H](OCC)CN2C(=O)[C@H](CCc2cc(F)c(C(F)(F)F)c(F)c2)NC(=O)CN(C)C(=O)[C@H](Cc2ccc(C(F)(F)F)cc2)N2CCCC[C@@H](C2=O)N(C)C(=O)CN(C)C(=O)[C@H]([C@@H](C)CC)NC(=O)[C@H](CC)N(C)C(=O)C[C@H]1C(=O)N(C)C [PP0644],–,–,–,0.0207,0.00015,C (A compound having a KD ratio of 0.1 or more and less than 3 is denoted as C),B (a compound having 3 or more and less than 10 is denoted as B),–,–,–
CCO[C@@H]1C[C@H]2C(=O)NC3(CCC3)C(=O)N(C)[C@@H](C3CCCC3)C(=O)N(C)[C@H](C(=O)N(CC)CC)CC(=O)N(C)[C@@H](CC(C)C)C(=O)N[C@@H]([C@@H](C)CC)C(=O)N(C)CC(=O)N(C)[C@H]3C/C=C\CCN(C3=O)[C@@H](Cc3ccc(C)cc3)C(=O)N(C)CC(=O)N[C@@H](CCc3ccc(C(F)(F)F)c(OC)c3)C(=O)N2C1 [PP1887],–,–,–,0.0192,0.0003,–,–,–,A (a compound having 10 or more and less than 20 is denoted as A),B (a compound having 3 or more and less than 10 is denoted as B)
CC[C@H](C)[C@@H]1NC(=O)[C@H](CC2CC2)N(C)C(=O)C[C@@H](C(=O)N(C)CC)N(C)C(=O)[C@H](C2CCCC2)N(C)C(=O)C2(CC(C)(C)C2)NC(=O)[C@@H]2C[C@H](C)CN2C(=O)[C@H](CCc2ccc(C(F)(F)F)c(OC)c2)NC(=O)CN(C)C(=O)[C@H](Cc2ccc(C)cc2)N2CC/C=C\C[C@@H](C2=O)N(C)C(=O)CN(C)C1=O [PP1899],–,–,–,0.0151,0.00012,A (a compound having 10 or more and less than 20 is denoted as A),B (a compound having 3 or more and less than 10 is denoted as B),–,–,–
CC[C@H](C)[C@@H]1NC(=O)[C@H](COC)N(C)C(=O)C[C@@H](C(=O)N(C)CC)N(C)C(=O)[C@H](C2CCCC2)N(C)C(=O)C2(CC(C)(C)C2)NC(=O)[C@@H]2C[C@@H](F)CN2C(=O)[C@H](CCc2cc(F)cc(F)c2)NC(=O)CN(C)C(=O)[C@H](Cc2ccc(C(F)(F)F)cc2)N2CC/C=C\C[C@@H](C2=O)N(C)C(=O)CN(C)C1=O [PP3138],0.0044,A (a compound having 10 or more and less than 20 is denoted as A),A (a compound having 10 or more and less than 20 is denoted as A),0.507,–,–,–,–,–,–
